Converted amounts (≈) assume the structure as drawn. “And” between values parts separate entries of the source, which are not always exact repeats. Equal entries are not always repeated.
Tests used:
[1] = Thermodynamic solubility; format: physicochemical; conditions: thermodynamic from solid
[2] = Kinetic solubility; format: physicochemical; conditions: kinetic from dmso stock
[3] = Log D; format: physicochemical; conditions: pH 7.4; pH 7,4
[4] = target: T1, mHTT (Homo sapiens, UniProt P42858); test: mHTT levels in striatal cells (immunocytochemistry); format: cell-based, mouse; conditions: for mHTT after 3 h heat shock and following 48 hours of compound treatment in comparison to untreated STHdh 111/111 / remaining activity at 10 µM: STHdh 111/111; for remaining activity at 10 µM: 3 hours heat shock, 48 hours treatment, percentage in comparison to untreated STHdh 111/111, 3B5H10 antibody, read-out: mHTT after treatment
T1 construct: host or cells: ST HDH Q111/111 mouse striatal cell line (knock-in locus)
Experimental: (§1) Staining - Cells were permeabilized with 0.3% Triton X-100 in 4 °C PBS (pH 7.4 from ThermoFisher) for 10 minutes. Then the cells were washed two times with 4 °C PBS. Subsequently, cells are blocked with 3% NGS (normal goat serum from Thermo Fisher) in 4 ° C PBS for 1 hour. Cells were incubated with primary antibodies in blocking buffer (PBS, 3% NGS, 0.02% NaN3) over night at 4 °C. Primary antibodies were mouse antipolyglutamine monoclonal antibody 3B5H10 (Sigma-Aldrich) at 1:250 dilution and Guinea Pig anti-MAP2 polyclonal antibody (Synaptic Systems) at 1:500 dilution. 3B5H10 binds to diffuse mHTT. Diffuse mHTT is a monomeric and small oligomeric mHTT. Diffuse mHTT is correlated to pathological parameters in Huntington's disease. Compounds that bind the mHTT will reduce the levels of diffuse mHTT detected.
Cells were washed 2 times with 4 °C PBS, and then incubated with secondary antibodies at 1:2000 dilution in blocking buffer for 1hour at room temperature. […] Cells were washed 2 times with 4 °C PBS, and then the nuclei were counterstain with DAPI (ThermoFisher) for 10 min at room temperature in the dark. Cells were washed 2 times with 4 °C PBS, and then 4 °C PBS was added to cells and then images were acquired. […] Table 11: Antibodies Used in Immunocytochemistry Studies
Fluorescence Imaging - Imaging sessions were performed on a confocal microscope system (Carl Zeiss Microscopy) equipped with a dual spinning disk unit (Yokogawa). All components of the imaging system were controlled via the ZEN 2 software suite (Carl Zeiss Microscopy). The laser lines used were 405 nm, 488 nm and 639 nm to excite DAPI or the respective fluorophores. […] Nested t test was performed to calculate the significance amongst repeated measurements using GraphPad Prism software.
as §1, with “For LC3 staining primary antibodies were mouse anti-LC3 mab (5F10) (nanoTools) at 1:500 dilution” for “3B5H10 binds to diffuse mHTT. Diffuse mHTT is a monomeric”, “Guinea Pig anti-MAP2 polyclonal antibody (Synaptic Systems) at 1:500 dilution.” for “small oligomeric mHTT. Diffuse mHTT is correlated to pathological parameters in Huntington's disease. Compounds that bind the mHTT will reduce the levels of diffuse mHTT detected.”
Cells were washed 2 times with 4 °C PBS, and then incubated with secondary antibodies at 1:2000 dilution in blocking buffer for 1hour at room temperature. […] Cells were washed 2 times with 4 °C PBS, and then the nuclei were counterstain with DAPI (ThermoFisher) for 10 min at room temperature in the dark. Cells were washed 2 times with 4 °C PBS, and then 4 °C PBS was added to cells and then images were acquired.
EC 50 value was determined with non-linear regression.

[5] = target: T2, wildtype huntingtin (Mus musculus, UniProt P42859); test: Wildtype huntingtin levels (immunofluorescence); format: cell-based; conditions: STHdh 7/7 in comparison to non-treated STHdh 7/7
T2 construct: host or cells: ST HDH Q7/7 mouse striatal cell line

[6] = target: Exon1 Q46 (Homo sapiens, UniProt P42858, INS38QQQQQQQQQQQQQQQQQQQQQQQQQ); test: Circular dichroism study; format: binding
Experimental: Protein samples were diluted with buffer to 7.5 µM prior to Circular Dichroism (CD) measurements. Measurements were conducted at room temperature.
Four spectra at each measurement were taken every 1 nm from 200 to 260 nm, scanning at 50 nm/min with an averaging time of 1 sec. Spectra were obtained from samples in 20 mM phosphate, pH 7.4. Ten scans were averaged for each sample spectrum
Single-wavelength readings at 222 nm were obtained. After subtraction of the Trx contribution, the α-helical content of Httex1 was estimated from its mean residue ellipticity (MREHttex1) at 222 nm. This calculation was conducted as described by Bravo-Arredondo (Bravo-Arredondo, J.M. et al., J Biol Chem. 2018 Dec 21;293(51):19613-19623).
MRE Exon-1 Q16 and Q46 (Mean Residue Ellipticity) was measured every 1 sec for 300 sec; the 301 readings for each sample were averaged and MRE Trx subtracted. The number of amino acids in each sample to experience a change in helicity was estimated using a previously developed helix-coil transition model, which gave the change in fraction of helicity (ΔfHelix) by the following equation: fHelix = (MREHttex1 −MRECoil)/(MREHelix −MRECoil) [formula] where MRE Exon1 Q26 or Q46 (MREHttex1 in the formula) describes the helix-coil transition, obtained from the difference between MRE Eon1 Q26 or Q46 at 222 nm of the fusion protein at the given temperature (in our case 37 °C) and the product of MRE Trx at 222 nm at the same temperature and the fraction of residues comprised by Trx in that particular construct, and MRECoil = 2220−53T,MREHelix =; (−44,000+250T)(1−(3)/(Nr)) [formula] given T as the temperature in °C and Nr as the number of residues.
In order to calculate an equilibrium of the two states model, percent α-helicity was calculated using the relation of MREHttex1 = 0 and -34700 (deg cm^2 dmol^-1) for 0% and 100% helicity, respectively. Table 14: Comparison between Kd, reversal of conformational changes of Exon1 Q46 and reduction of mHTT in comparison to untreated striatal neurons
The CD measurements protocol for Compound 101 was the same as outlined above except that from 206 nm - 210 nm and 220 nm - 224 nm, the step size was 0.2 nm, and the bandwidth was 1nm.

Exon1 Q46, sequence (P42858 with tags, fused parts or gaps with the stated changes): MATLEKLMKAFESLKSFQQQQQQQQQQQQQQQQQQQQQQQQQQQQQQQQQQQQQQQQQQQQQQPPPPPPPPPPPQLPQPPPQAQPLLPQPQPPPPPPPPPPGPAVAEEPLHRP
T1 sequence (P42858 with tags, fused parts or gaps with the stated changes): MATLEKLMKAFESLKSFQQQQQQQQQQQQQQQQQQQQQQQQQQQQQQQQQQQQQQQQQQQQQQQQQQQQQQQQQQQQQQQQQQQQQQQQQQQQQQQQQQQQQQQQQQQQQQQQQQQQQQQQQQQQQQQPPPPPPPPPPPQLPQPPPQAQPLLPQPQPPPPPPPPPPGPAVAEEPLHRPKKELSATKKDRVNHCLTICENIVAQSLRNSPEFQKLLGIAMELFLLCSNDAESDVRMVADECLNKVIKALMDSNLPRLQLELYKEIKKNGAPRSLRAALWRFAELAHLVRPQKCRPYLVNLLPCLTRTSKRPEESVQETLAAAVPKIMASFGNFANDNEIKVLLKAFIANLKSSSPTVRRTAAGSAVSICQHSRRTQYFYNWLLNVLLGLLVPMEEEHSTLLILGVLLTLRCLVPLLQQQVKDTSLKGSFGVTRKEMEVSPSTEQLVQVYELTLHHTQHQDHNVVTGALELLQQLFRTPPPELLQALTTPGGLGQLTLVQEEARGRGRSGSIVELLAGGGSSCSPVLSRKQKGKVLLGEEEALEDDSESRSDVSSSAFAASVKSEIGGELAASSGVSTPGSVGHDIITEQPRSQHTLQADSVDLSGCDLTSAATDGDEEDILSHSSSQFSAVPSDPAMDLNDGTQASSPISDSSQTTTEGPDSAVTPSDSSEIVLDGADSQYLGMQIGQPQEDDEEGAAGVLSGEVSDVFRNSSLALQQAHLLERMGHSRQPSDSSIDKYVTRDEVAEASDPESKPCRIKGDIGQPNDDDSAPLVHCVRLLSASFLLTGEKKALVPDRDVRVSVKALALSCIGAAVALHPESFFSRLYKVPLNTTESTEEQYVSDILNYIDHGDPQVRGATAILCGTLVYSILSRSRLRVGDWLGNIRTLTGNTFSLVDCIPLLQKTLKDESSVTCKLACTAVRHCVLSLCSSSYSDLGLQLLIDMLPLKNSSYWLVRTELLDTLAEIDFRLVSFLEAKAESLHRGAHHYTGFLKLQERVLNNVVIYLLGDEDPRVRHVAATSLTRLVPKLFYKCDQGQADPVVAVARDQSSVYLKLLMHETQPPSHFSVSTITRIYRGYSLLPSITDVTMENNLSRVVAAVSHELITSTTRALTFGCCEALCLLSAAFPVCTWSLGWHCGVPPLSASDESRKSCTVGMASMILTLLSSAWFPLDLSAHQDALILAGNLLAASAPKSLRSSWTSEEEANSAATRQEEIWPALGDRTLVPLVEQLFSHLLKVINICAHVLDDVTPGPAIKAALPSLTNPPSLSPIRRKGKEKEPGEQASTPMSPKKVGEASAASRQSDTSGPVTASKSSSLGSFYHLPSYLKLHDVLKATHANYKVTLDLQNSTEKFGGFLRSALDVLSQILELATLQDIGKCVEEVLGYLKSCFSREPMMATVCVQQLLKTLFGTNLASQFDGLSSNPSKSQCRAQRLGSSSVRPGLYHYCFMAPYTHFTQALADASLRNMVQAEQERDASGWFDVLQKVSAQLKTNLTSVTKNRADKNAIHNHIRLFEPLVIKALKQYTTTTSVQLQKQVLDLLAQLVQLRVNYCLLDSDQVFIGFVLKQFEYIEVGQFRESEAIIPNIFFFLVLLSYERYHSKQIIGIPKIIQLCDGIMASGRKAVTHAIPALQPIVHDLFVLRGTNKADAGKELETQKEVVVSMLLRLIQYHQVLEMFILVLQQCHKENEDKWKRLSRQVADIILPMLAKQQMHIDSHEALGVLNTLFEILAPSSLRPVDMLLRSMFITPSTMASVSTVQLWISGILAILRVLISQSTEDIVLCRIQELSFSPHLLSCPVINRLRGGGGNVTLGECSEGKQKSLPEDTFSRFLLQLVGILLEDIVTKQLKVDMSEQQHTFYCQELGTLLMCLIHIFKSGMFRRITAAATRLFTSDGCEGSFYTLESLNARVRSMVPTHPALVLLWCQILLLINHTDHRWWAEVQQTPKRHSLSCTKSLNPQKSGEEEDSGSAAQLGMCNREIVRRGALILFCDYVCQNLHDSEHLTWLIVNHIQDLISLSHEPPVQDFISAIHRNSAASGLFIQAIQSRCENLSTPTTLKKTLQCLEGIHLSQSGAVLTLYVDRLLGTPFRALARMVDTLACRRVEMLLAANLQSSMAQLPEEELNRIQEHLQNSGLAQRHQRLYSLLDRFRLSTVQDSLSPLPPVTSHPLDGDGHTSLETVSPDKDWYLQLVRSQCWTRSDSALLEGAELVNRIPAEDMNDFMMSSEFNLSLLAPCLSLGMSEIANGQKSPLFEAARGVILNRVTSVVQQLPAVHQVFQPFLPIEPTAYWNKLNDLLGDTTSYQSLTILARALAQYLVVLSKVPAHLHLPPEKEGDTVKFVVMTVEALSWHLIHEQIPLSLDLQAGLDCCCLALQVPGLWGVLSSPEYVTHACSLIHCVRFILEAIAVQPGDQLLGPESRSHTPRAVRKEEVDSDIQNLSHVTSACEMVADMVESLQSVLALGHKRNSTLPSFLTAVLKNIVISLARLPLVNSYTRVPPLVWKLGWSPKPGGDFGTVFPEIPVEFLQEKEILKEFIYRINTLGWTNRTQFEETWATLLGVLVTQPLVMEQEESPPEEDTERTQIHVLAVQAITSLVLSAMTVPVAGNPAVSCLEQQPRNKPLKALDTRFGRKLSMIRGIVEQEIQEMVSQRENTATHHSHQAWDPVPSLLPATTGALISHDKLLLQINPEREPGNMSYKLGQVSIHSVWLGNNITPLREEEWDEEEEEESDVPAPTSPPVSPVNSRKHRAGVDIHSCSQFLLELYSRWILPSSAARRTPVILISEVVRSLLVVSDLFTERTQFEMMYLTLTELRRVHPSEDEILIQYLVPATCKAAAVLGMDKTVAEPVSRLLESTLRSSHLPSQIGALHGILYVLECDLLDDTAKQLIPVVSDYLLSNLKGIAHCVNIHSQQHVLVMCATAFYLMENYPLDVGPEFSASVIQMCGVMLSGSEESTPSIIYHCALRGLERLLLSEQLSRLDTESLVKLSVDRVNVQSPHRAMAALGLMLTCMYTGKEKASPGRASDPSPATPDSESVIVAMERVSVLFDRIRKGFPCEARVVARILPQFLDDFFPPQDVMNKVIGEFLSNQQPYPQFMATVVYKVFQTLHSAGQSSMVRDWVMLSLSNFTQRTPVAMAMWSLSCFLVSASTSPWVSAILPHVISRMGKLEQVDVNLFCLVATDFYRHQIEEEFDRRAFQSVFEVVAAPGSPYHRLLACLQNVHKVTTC

SMILES	solubility thermodynamic [1] [µM]	solubility kinetic [2] [µM]	logD [3]	mHTT after 3 h heat shock and following 48 hours of compound treatment in comparison to untreated STHdh 111/111 [4] [%]	remaining activity at 10 µM [4] [%]	wildtype huntingtin level [5]	Kd ([6]; Exon1 Q46) [µM]	Kd ([6]; Exon1 Q46 protein) [µM]	other results
CCc1c(C)[nH]c2ccc(C(=O)NCCN(CC)CC)cc12 [Compound 4, N-(2-(diethylamino)ethyl)-3-ethyl-2-methyl-1H-indole-5-carboxamide]	5100 (≈ 1540 µg/mL)	328 (≈ 98.9 µg/mL)	2.02	34	34	not reduced	0.06	0.06	Diffuse mHTT reduction ([4]; STHdh 111/111 in comparison to untreated cells, p < 0.0001): 68%; Fraction Helix fH ([6]; Exon1 Q46, conc. Compound 0.01 µM): 22.4%; Fraction Helix fH ([6]; Exon1 Q46, conc. Compound 0.059 µM): 20.9%; Fraction Helix fH ([6]; Exon1 Q46, conc. Compound 0.158 µM): 21.1%; Fraction Helix fH ([6]; Exon1 Q46, conc. Compound 0.647 µM): 20.0%; Fraction Helix fH ([6]; Exon1 Q46, conc. Compound 1.62 µM): 19.5%; Fraction Helix fH ([6]; Exon1 Q46, conc. Compound 4.04 µM): 19.3%; Fraction Helix fH ([6]; Exon1 Q46, conc. Compound 13.68 µM): 18.3%; Fraction Helix fH ([6]; Exon1 Q46, conc. Compound 37.77 µM): 18.1%
Cc1[nH]c2ccc(C(=O)NCCN(C(C)C)C(C)C)cc2c1C [Compound 22]	2100 (≈ 662 µg/mL)	188 (≈ 59.3 µg/mL)	1.21	46	46	not reduced	0.7	0.701	mHTT lowering with autophagy inhibitor ([4]; STHdh 111/111 exposed to 10 mM NH4Cl): blocked the mHTT lowering effects of Compound 22 completely; Nuclear diffuse mHTT reduction ([4]; STHdh 111/111 in comparison to untreated cells, p = 0.02): 32%; proportion of a predominantly α-helical state of Exon1 Q46 after treatment ([6]; 2 µM): 21.4%; Reduction of the proportion of a predominantly α-helical state to wildtype levels ([6]; 2 µM compound exposure): 36.7% and 36.6%
